# Experimental data: patent US20130157959A1, “USE OF HADES AS TUMOR SUPPRESSOR TARGET” (KONKUK UNIVERSITY INDUSTRIAL COOPERATION CORP, priority 2010, published 2013)
# Peptide text beside a SMILES is read from it. * marks the point of attachment. Cbz = O=C(OCc1ccccc1)*
# What was measured:
# Format in all cases: cell-based
# [1] = test system: p53; assay: p53 accumulation in CPT-treated MCF7 cells (immunoblotting)
# Method: In a prior research, as p53 is rapidly translocated to mitochondria upon camptothecin (CPT) treatment for its exonuclear function [Mihara et al., Molecular Cell 11, 577-590 (2003)]. We examined whether Hades would be able to weaken the exonuclear function of p53 upon CPT treatment. MCF7 cells were transfected with plasmids (1 μg) expressing GFP or GFP-Hades. At 24 h post-transfection, cells were treated with CPT (1 μM) for 6 h. Accumulation of p53 upon CPT treatment was attenuated by Hades expression (FIG. 5e, upper panel). MCF7 cells were transfected with expression plasmid for GFP or GFP-Hades RING MR. At 24 h after transfection, cells were treated with CPT [5 μM] for 6 h and their nuclear and cytoplasmic fractions were collected to measure the expression level of p53. […] Further, MCF7 cells were transfected with the expression plasmids for GFP or GFP-Hades MR. At 24 h after transfection, cells were treated with 1 μM CPT for 24 h. Cells were harvested, lysed and immunoprecipitated with anti-p53 antibody. […] Hades inhibits the interaction between p53 and Bcl-2 in CPT-treated cells. (FIG. 5f) In order to confirm the effect of Hades on CPT-induced apoptosis, MCF7 cells were transfected with plasmids expressing GFP or GFP-Hades. At 24 h post-transfection, cells were treated with CPT (1 μM) for 24 h.
# [2] = target: Crm1 (Homo sapiens, UniProt O14980); assay: p53 level in Hades-transfected H1299 cells with leptomycin B; conditions: H1299 transfected with p53 and GFP-Hades, FIG. 2i
# Method: Next, we monitored the localization of p53 after the knockdown of Hades. […] The levels of endogenous p53 were measured in fractionated extracts of stable MCF7 cells. […] And also, we used a p53 expression plasmid encoding a mutant p53 (C153Y) that is localized mainly to the cytoplasm but not in the nucleus [Nie et al., J Biol Chem. 282, 14616-14625 (2007)]. We performed immunoblotting assay of ectopically expressed wild-type or mutant p53(C135Y). […] At 24 h after transfection, ectopically expressed wild-type p53 and mutant p53 levels were measured by immunoblotting.
# [3] = test system: p53; assay: Bax-luc / Puma-luc luciferase reporter assay; conditions: H1299, LMB 20 nM 4 h, FIG. 4b
# Method: Aliquots of 5×10^4 cells were plated in 24-well plates. The following was added to each well: 500 ng of pGL plasmid containing the promoter p53 binding site for Bax or Puma, 100 ng of p53 plasmid, and 200 ng of Hades or Hades MT plasmid. At 48 h after transfection, cells were harvested and cell extracts were prepared by addition of 50 μl Passive lysis buffer (Promega). Luciferase activities were measured using a Biotek synergy HT microplate reader. The relative luciferase activities were normalized by mesuring β-galactosidase activities using Luminescent β-galactosidase detection kit II (Takara-Clontech).
# Since E3 ligase activities necessary for p53 ubiquitination can also regulate p53 function [Dornan et al., Nature 429, 86-92 (2004); Leng et al., Cell 112, 779-791 (2003)], we explored the effect of Hades on p53-dependent growth suppression and apoptosis. First, we examined whether Hades affects p53-mediated transcriptional activation using a luciferase reporter assay (FIG. 4a). H1299 cells were cotransfected with expression plasmids for p53 and GFP, GFP-Hades, or GFP-Hades MT, together with Bax-luc or Puma-luc reporter plasmid. At 24 h after transfection, the relative luciferase activities were measured by luminometer. […] At 24 h after transfection, luciperase activation and p53 experssion were measured.
# [4] = test system: p53; assay: p53 level in Hades-transfected H1299 cells with MG132; conditions: H1299, 10 μM MG132 4 h, FIG. 2e
# Method: To gain a more detailed insight into the function of Hades in p53 downregulation, we investigated the regulation of p53 stability by Hades. H1299 cells were transfected with each indicated plasmid for 24 h and untreated or treated with 10 μM MG132 for 4 h. The reduced level of p53 by Hades was recovered by treatment of MG132 (FIG. 2e). To generate of stable Hades-knockdown MCF7 cells using the shRNA, the cells were transfected with pSuper-Hades 1 or 2. After selection for 14 days in media containing G418 (500 μg/ml), hades mRNA levels were measured by RT-PCR and the levels of endogenous Hades and p53 proteins were measured by immunoblotting. […] Furthermore, Stable Hades-knockdown MCF7 cells using Hades shRNA were incubated with cycloheximide (CHX, 150 μg/ml). The half-life of p53 protein was greater in pSuper-Hades transfected cells (lower panel) than in control (upper panel) (FIG. 2g).
# [5] = test system: p53; assay: In vivo p53 ubiquitination assay in H1299 cells; conditions: H1299 cotransfected with p53 and GFP-Hades, MG132 10 μM 4 h, FIG. 3e
# Method: For in vivo p53 ubiquitination assay, HCT116 p53^−/− or H1299 cells were transfected with GFP, GFP-Hades, or GFP-Hades RING MT. At 48 hr after transfection, cells were treated with 10 μM MG132 for 4 hr. The ubiquitinated lysates were analyzed by immunoprecipitation using anti-p53 antibody followed by immunoblotting using anti-Ubiquitin antibody. In vivo p53 ubiquitination analysis, HCT116 p53^−/− or H1299 cells were transformed with GFP, GFP-Hades or GFP-Hades RING MT for 48 hr. After the transformation, cells were incubated for 4 hr using 10 μM MG132. Then, cells were lysed using SDS-containing lysis buffer and heated for […]. […] The anti-p53 immunoprecipitate was analyzed by immunoblotting using anti-polyubiquitin antibody.
# Since there are several E2 conjugating enzymes which participate in the ubiquitin-mediated degradation [Smalle et al., Annu Rev Plant Biol. 2004, 555-590 (2004)], we examined which E2 enzyme is responsible for the ubiquitination of p53 by Hades. […] After in vitro ubiquitination, samples were examined SDS-PAGE and detected using autoradiography. […] Moreover, in vitro translated ^35S-labeled p53 was incubated with GST, GST-Hades RP or GST-Mdm2 in the presence of ATP, His-tagged ubiquitin E1 and E2(UbcHSc). p53 ubiquitination was assessed by immunoblotting using anti-p53 antibody. […] The p53 ubiquitination was assessed by immunoblotting using anti-p53 antibody. […]
# [6] = test system: HCT116 p53+/+ cells; assay: JC-1 mitochondrial membrane potential, HCT116 p53+/+; conditions: 40 nM siRNA 24 h, then 1 μM CPT 24 h, FIG. 5j
# Method: For the MTS assay, cells were incubated with CellTiter 96® AQueous Non-Radioactive Cell Proliferation Assay reagent (Promega, USA) for 1 h, and then the O.D. was measured at 490 nm. Apoptosis, DNA content, and mitochondrial membrane potential were determined by flow cytometry using annexin V-PE, propidium iodine, and JC-1 staining, as previous described [Shirangi et al., FASEB J. 16, 420-422 (2002)].
# The present inventors investigated the negative role of Hades on p53-dependent apoptosis additionaly using FACS analysis. MCF7 cells were transfected with pSuper or pSuper-Hades, treated with 1 μM CPT for 24 h, and analyzed by FACS to measure the sub-GO fraction. As a result, CPT treatment was higher in Hades knockdown MCF7 cells than in control cells (FIG. 5i). Further, HCT116 p53+/+ and HCT116 p53−/− cells were transfected with 40 nM Hades siRNA or control siRNA. After incubation for 24 h, cells were further treated with 1 μM CPT for 24 h. Cells were harvested and stained with JC-1 for 30 min.
# Sequence of Crm1 (O14980 whole entry): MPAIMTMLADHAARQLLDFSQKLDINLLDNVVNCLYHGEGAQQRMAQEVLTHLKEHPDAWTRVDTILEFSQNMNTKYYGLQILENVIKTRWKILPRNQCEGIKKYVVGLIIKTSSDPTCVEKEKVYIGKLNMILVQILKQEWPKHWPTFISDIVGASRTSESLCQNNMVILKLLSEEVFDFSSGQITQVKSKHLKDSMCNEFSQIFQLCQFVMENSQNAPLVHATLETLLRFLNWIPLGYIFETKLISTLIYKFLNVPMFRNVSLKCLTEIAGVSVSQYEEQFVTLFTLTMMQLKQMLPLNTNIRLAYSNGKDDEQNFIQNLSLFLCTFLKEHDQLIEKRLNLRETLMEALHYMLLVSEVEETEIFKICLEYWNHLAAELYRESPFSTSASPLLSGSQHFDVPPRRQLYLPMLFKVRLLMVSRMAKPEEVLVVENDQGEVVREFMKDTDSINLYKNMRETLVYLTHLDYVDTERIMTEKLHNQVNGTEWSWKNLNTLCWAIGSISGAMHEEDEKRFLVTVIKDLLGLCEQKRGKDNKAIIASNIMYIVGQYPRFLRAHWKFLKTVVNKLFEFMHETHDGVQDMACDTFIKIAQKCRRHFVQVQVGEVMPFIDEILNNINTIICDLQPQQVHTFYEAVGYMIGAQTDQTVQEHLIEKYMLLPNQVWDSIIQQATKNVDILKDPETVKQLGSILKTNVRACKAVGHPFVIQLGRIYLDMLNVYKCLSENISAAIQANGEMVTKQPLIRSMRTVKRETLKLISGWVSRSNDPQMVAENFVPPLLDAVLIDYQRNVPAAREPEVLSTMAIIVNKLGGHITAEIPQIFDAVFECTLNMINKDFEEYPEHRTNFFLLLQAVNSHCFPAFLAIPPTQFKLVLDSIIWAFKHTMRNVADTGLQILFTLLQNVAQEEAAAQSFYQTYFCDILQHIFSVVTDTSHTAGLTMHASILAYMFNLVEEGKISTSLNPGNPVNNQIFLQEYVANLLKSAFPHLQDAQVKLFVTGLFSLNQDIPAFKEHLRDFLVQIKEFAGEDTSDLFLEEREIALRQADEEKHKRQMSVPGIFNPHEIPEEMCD
compound,measurement,setting,value
"CC[C@@]1(O)C(=O)OCc2c1cc1n(c2=O)Cc2cc3ccccc3nc2-1 [CPT, Camptothecin]",expression level of p53,"[1]; MCF7, 1 μM CPT 24 h, FIG. 5f",accumulation of p53 expression was observed
same,expression level of p53 in nuclear and cytoplasmic fractions,"[1]; MCF7, CPT 5 μM 6 h, FIG. 5e lower panel",accumulated in nucleus and cytoplasm
"CCC(=C/[C@H](C)C/C=C/C(C)=C/[C@@H](C)C(=O)[C@@H](C)[C@H](O)[C@@H](C)C/C(C)=C/C(=O)O)/C=C/[C@@H]1OC(=O)C=C[C@@H]1C [LMB, Leptomycin B]",level of p53 reduced by Hades,[2],restored the level of p53
same,p53 transcriptional activity (relative luciferase activity),[3],not reduced by Hades in the presence of LMB
CC(C)C[C@@H](C=O)NC(=O)[C@H](CC(C)C)NC(=O)[C@H](CC(C)C)NC(=O)OCc1ccccc1 [MG132] (Cbz-Leu-Leu-Leu-aldehyde),level of p53 reduced by Hades,[4],recovered
same,polyubiquitinated p53,[5],only detected in Hades-transfected cells treated with MG132
"Hades siRNA: siRNAs for Hades from Ambion, GGGAUUUUUAUCUCGAGGC and CGUGUGUGUAGAGGACAAA; antisense SEQ ID NO: 4 and 5 (antisense 1 GCCUCGAGAUAAAAAUCCCTG; antisense 2 UUUGUCCUCUACACACACGTG; sense strands lack entries, further chemistry not given here)",loss of mitochondrial membrane potential (JC-1),[6],only detectable in HCT116 p53+/+ cells
